The values that follow come from paper PMC12022153, “Sustainable approach for synthesis of new coumarin-linked Schiff bases in DABCO-based ionic liquid and their identification as aldose reductase inhibitors” (Scientific Reports, 2025).

The target of assay [1] is T1, aldose reductase (ALR2) (Bos taurus, UniProt P16116).
T1 construct: ALR2 was extracted from the eyes while ALR1 was obtained from the kidneys; from tissue; host or cells: bovine eyes
The experiment in a line: Enzyme inhibition assay for ALR2 (aldose reductase), NADPH absorbance at 340 nm. It counts as biochemical, bovine. Conditions: for selectivity of inhibition, ALR2 versus ALR1: comparison of inhibitory activity against both enzymes; for IC50: read-out: IC50 ± SEM ALR2 Inhibition; for inhibition at 100 µM: less than 50% so no IC50. The protocol: (§1) The ALR2 activity was estimated through measuring decrease in absorbance of NADPH in the assay at 340 nm on a spectrophotometer (FLUOstar Omega BMG LABTECH, Germany). The enzyme inhibition assay was carried out via following methods of ALR2 inhibition of our recent study. During the assay, total assay volume was kept 100 consisting of 20 µL of 100 mM sodium phosphate buffer at pH 6.2, 30 µL of the enzyme ([…]; protein concentration 12 µg mL^−1), 10 µL of test compound, and 20 µL of 1 mM substrate DL-glyceraldehyde. First, the reaction mixture was incubated without co-factor (NADPH) then reaction was initiated by addition of 20 µL of NADPH solution of 0.1 mM and monitored for five minutes. The change of absorbance was noted as pre-read and after-read, the percent inhibition was calculated for the tested compounds and standard inhibitor. For ALR1 (aldehyde reductase), sodium-D-glucuronate was employed as a substrate and valproic acid as a standard inhibitor. […] Otherwise, identical protocols were adopted for the ALR1 and ALR2 assays. First, tests compounds were solubilized in dimethyl sulfoxide (DMSO) (100%) and dilutions were prepared with deionized water to keep the concentration of DMSO at 0.1% during the assay. Initially, test compounds were tested at 100 µM. […] The logarithms of the inhibitor concentration were plotted versus the remaining activity of the enzyme, and IC50 values were calculated using non-linear regression analysis in GraphPad Prism Version 8.
(§2) Based on these reports, a library of coumarin-linked Schiff base analogues were designed. […] Compounds were also checked for selectivity via testing their inhibitory potency against ALR1 enzyme. Both aldose reductase enzymes (ALR2 and ALR1) were isolated from bovine; ALR2 was extracted from the eyes while ALR1 was obtained from the kidneys.

For assay [2], the target named is T2, aldehyde reductase (ALR1) (Bos taurus, UniProt Q3ZCJ2).
T2 construct: ALR2 was extracted from the eyes while ALR1 was obtained from the kidneys; from tissue; host or cells: bovine kidneys
T2 sequence (Q3ZCJ2 whole entry): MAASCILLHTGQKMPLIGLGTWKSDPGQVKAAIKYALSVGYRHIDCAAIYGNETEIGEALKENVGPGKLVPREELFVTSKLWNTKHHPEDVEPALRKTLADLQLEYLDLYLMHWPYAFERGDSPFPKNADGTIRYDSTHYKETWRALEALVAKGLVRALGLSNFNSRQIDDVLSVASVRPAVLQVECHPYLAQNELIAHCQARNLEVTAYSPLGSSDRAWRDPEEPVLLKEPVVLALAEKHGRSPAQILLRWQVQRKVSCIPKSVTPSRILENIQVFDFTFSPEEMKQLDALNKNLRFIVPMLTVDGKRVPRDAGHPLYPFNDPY
Nature of the assay: Enzyme inhibition assay for ALR1 (aldehyde reductase), NADPH absorbance at 340 nm. Conditions: for inhibition at 100 µM: less than 50% so no IC50; for IC50: substrate sodium-D-glucuronate, NADPH, standard valproic acid, value ± SEM. It counts as biochemical, bovine. The protocol:
as §1, §2

The subject of assay [3] is aldose reductase (ALR2). Conditions: cited from earlier work.
Where [4] appears, read: test compounds tested at 100 µM, read-out: % Inhibition ALR1.
[5] abbreviates: test compounds tested at 100 µM, read-out: % Inhibition ALR2.

Read-outs that look alike come from different tables or passages of the source. Where only a bound is given, the exact number is not on record here.

Turning to `O=c1oc2ccccc2cc1COc1ccccc1C=NNc1ccccc1` [Compound 5, 3-((2′-((2-Phenylhydrazineylidene)methyl)phenoxy)methyl)-2H-chromen-2-one], in assay [1], the “selectivity of inhibition, ALR2 versus ALR1” value (shortened to “selectivity of inhibition”) is on record as “selective inhibition against ALR2 enzyme” and the IC50 turned out to be 11.2 ± 0.029 µM. Also, the inhibition at 100 µM in assay [2] (setting [4]) was 45.1%.
In the case of `O=c1oc2ccccc2cc1COc1ccccc1C=NNc1ccc(F)cc1` [Compound 6, 3-((2′-((2-(4′′-Fluorophenyl)hydrazineylidene)methyl)phenoxy)methyl)-2H-chromen-2-one], in assay [1], the “selectivity of inhibition” value is “selective inhibition against ALR2 enzyme” and the IC50 was determined as 2.2 ± 0.024 µM. In addition, the inhibition at 100 µM in assay [2] (setting [4]) is 45.2%.
Turning to `O=c1oc2ccccc2cc1COc1ccccc1C=NNc1ccccc1Cl` [Compound 7, 3-((2′-((2-(2′′-Chlorophenyl)hydrazineylidene)methyl)phenoxy)methyl)-2H-chromen-2-one], the values for the IC50 in assay [1] and in assay [2] were 3.61 ± 0.016 µM and 14.49 ± 0.052 µM, respectively.
The matching figures for `O=c1oc2ccccc2cc1COc1ccccc1C=NNc1cccc(Cl)c1` [Compound 8, 3-((2′-((2-(3′′-Chlorophenyl)hydrazineylidene)methyl)phenoxy)methyl)-2H-chromen-2-one]: 2.94 ± 0.083 µM and 5.96 ± 0.035 µM.
The matching figures for `O=c1oc2ccccc2cc1COc1ccccc1C=NNc1ccc(Cl)cc1` [Compound 9, 3-((2′-((2-(4′′-Chlorophenyl)hydrazineylidene)methyl)phenoxy)methyl)-2H-chromen-2-one]: 2.84 ± 0.032 µM and 4.07 ± 0.078 µM.
As to `O=c1oc2ccccc2cc1COc1ccccc1C=NNc1ccccc1Br` [Compound 10, 3-((2′-((2-(2′′-Bromophenyl)hydrazineylidene)methyl)phenoxy)methyl)-2H-chromen-2-one], the inhibition at 100 µM in assay [1] (setting [5]) and in assay [2] (setting [4]) was < 50% in each case.
As to `O=c1oc2ccccc2cc1COc1ccccc1C=NNc1ccc(Br)cc1` [Compound 11, 3-((2′-((2-(4′′-Bromophenyl)hydrazineylidene)methyl)phenoxy)methyl)-2H-chromen-2-one], the inhibition at 100 µM in assay [1] (setting [5]) and in assay [2] (setting [4]) was < 50% each time.
With `Cc1ccccc1NN=Cc1ccccc1OCc1cc2ccccc2oc1=O` [Compound 12, 3-((2′-((2-(o-Tolyl)hydrazineylidene)methyl)phenoxy)methyl)-2H-chromen-2-one], in assay [1], the “selectivity of inhibition” value is “selective inhibition against ALR2 enzyme” and the IC50 came out at 3.66 ± 0.068 µM. In addition, the inhibition at 100 µM in assay [2] (setting [4]) turned out to be 37.9%.
With `Cc1ccc(NN=Cc2ccccc2OCc2cc3ccccc3oc2=O)cc1` [Compound 13, 3-((2′-((2-(p-Tolyl)hydrazineylidene)methyl)phenoxy)methyl)-2H-chromen-2-one], in assay [1], the “selectivity of inhibition” value is reported as “selective inhibition against ALR2 enzyme” and the IC50 is 4.64 ± 0.045 µM. Besides, the inhibition at 100 µM in assay [2] (setting [4]) is 34.2%.
As to `CCc1ccccc1NN=Cc1ccccc1OCc1cc2ccccc2oc1=O` [Compound 14, 3-((2′-((2-(2′′-Ethylphenyl)hydrazineylidene)methyl)phenoxy)methyl)-2H-chromen-2-one], in assay [1], the “selectivity of inhibition” value is given as “non-selective inhibitions” and the IC50 is 6.52 ± 0.077 µM. In addition, the IC50 in assay [2] worked out at 12.9 ± 0.013 µM.
As for `COc1ccc(NN=Cc2ccccc2OCc2cc3ccccc3oc2=O)cc1` [Compound 15, 3-((2′-((2-(4′′-Methoxyphenyl)hydrazineylidene)methyl)phenoxy)methyl)-2H-chromen-2-one], in assay [1], the “selectivity of inhibition” value is recorded as “non-selective inhibitions” and the IC50 worked out at 10.19 ± 0.034 µM. The same molecule had an IC50 in assay [2] of 4.21 ± 0.023 µM.
For `N#Cc1ccc(NN=Cc2ccccc2OCc2cc3ccccc3oc2=O)cc1` [Compound 16, 4′′-(2-(2′-((2-Oxo-2H-chromen-3-yl)methoxy)benzylidene)hydrazineyl)benzonitrile], the inhibition at 100 µM in assay [1] (setting [5]) is 39.2%; in assay [2] (setting [4]) it was 42.9%.
Turning to `O=c1oc2ccccc2cc1COc1ccccc1C=NNc1ccccc1[N+](=O)[O-]` [Compound 17, 3-((2′-((2-(2′′-Nitrophenyl)hydrazineylidene)methyl)phenoxy)methyl)-2H-chromen-2-one], the inhibition at 100 µM came to 45.6% in assay [1] (setting [5]) and 33.2% in assay [2] (setting [4]).
As for `O=c1oc2ccccc2cc1COc1ccccc1C=NNc1cccc([N+](=O)[O-])c1` [Compound 18, 3-((2′-((2-(3′′-Nitrophenyl)hydrazineylidene)methyl)phenoxy)methyl)-2H-chromen-2-one], the inhibition at 100 µM came out at 42.9% in assay [1] (setting [5]) and 35.7% in assay [2] (setting [4]).
As for `Cc1cccc(NN=Cc2ccccc2OCc2cc3ccccc3oc2=O)c1C` [Compound 19, 3-((2′-((2-(2′′,3′′-Dimethylphenyl)hydrazineylidene)methyl)phenoxy)methyl)-2H-chromen-2-one], in assay [1], the “selectivity of inhibition” value is on record as “selective inhibition against ALR2 enzyme” and the IC50 is 1.61 ± 0.049 µM. In addition, the inhibition at 100 µM in assay [2] (setting [4]) was determined as 37%.
`Cc1ccc(NN=Cc2ccccc2OCc2cc3ccccc3oc2=O)c(C)c1` [Compound 20, 3-((2′-((2-(2′′,4′′-Dimethylphenyl)hydrazineylidene)methyl)phenoxy)methyl)-2H-chromen-2-one]: in assay [1], the “selectivity of inhibition” value is “non-selective inhibitions” and the IC50 came out at 7.63 ± 0.061 µM. The molecule also yielded an IC50 in assay [2] of 3.29 ± 0.064 µM.
The matching figures for `O=c1oc2ccccc2cc1COc1ccccc1C=NNc1ccc(Cl)c(Cl)c1` [Compound 21, 3-((2′-((2-(3′′,4′′-Dichlorophenyl)hydrazineylidene)methyl)phenoxy)methyl)-2H-chromen-2-one]: “non-selective inhibitions”, 4.07 ± 0.083 µM and 11.23 ± 0.065 µM.
Consider `O=c1oc2ccccc2cc1COc1ccccc1C=NNc1ccc([N+](=O)[O-])cc1[N+](=O)[O-]` [Compound 22, 3-((2′-((2-(2′′,4′′-Dinitrophenyl)hydrazineylidene)methyl)phenoxy)methyl)-2H-chromen-2-one], for which the inhibition at 100 µM was < 50% in assay [1] (read-out: % Inhibition ALR2, test compounds tested at 100 µM) and < 50% in assay [2] (read-out: % Inhibition ALR1, test compounds tested at 100 µM).
Consider `CCCC(CCC)C(=O)O` [Valproic acid, reference compound], for which, in assay [2], the IC50 stood at 57.4 ± 0.89 µM.
For `C/C(=N\NC(=S)Nc1ccccc1F)c1cc2ccccc2oc1=O` [XV], in assay [3], the “selectivity relative to ALR1 enzyme” value is “high selectivity”. Moreover, the IC50 in assay [3] (coumarin-tethered thiosemicarbazones, read-out: IC50 ALR2 / aldose reductase inhibition) is 2.07 µM.

As usually defined, the inhibition is how much of the control response was suppressed.
